Assays:
CDK6/Cyclin D3 = CDK6/Cyclin D3 (Homo sapiens (Human), UniProt Q00534); assay: CDK6/Cyclin D3 kinase TR-FRET inhibition assay; type: biochemical; conditions: 1 mM ATP, Rb (Ser780)-biotin substrate, read-out: CDK6D3 IC50
Protocol: (§1) Compounds disclosed herein were tested for inhibition of CDK4/Cyclin D1 or CDK6/Cyclin D3 kinase in an assay based on the time-resolved fluorescence-resonance energy transfer (TR-FRET) methodology. The assay was carried out in 384-well low volume black plates in a reaction mixture containing CDK4/Cyclin D1 or CDK6/Cyclin D3, 1 mM ATP, 0.15 μM Rb (Ser780)-biotin substrate and 0-10 μM compound in buffer containing 50 mM HEPES pH7.0, 0.02% NaN3, 0.01% BSA, 0.1 mM Orthovanadate, 50 mM MgCl2, 1 mM DTT and 0.005% Tween-20. The kinase was incubated with compound for 60 minutes at room temperature and the reaction was initiated by the addition of ATP and Rb (Ser780)-biotin substrate. After reaction at room temperature for 120 minutes, an equal volume of stop/detection solution was added according to the manufacture's instruction (Cisbio Bioassays). The stop/detection solution contained Streptavidin-XL665 and Anti-pRb (Ser780) mAb-Eu Cryptate in Detection buffer (Cisbio Bioassays). Plates were incubated at room temperature for 60 minutes, and the TR-FRET signals (ex337 nm, em665 nm/620 nm) were recorded on a PHERAstar FSX plate reader (BMG Labtech). The inhibition percentage of CDK4/Cyclin D1 or CDK6/Cyclin D3 kinase activity in presence of increasing concentrations of compounds was calculated based on the ratio of fluorescence at 665 nm to that at 620 nm. The IC50 for each compound was derived from fitting the data to the four-parameter logistic equation by Dotmatics.

CDK4/Cyclin D1 = CDK4/Cyclin D1 (Homo sapiens (Human), UniProt P11802); assay: CDK4/Cyclin D1 kinase TR-FRET inhibition assay; type: biochemical; conditions: 1 mM ATP, Rb (Ser780)-biotin substrate, read-out: CDK4D1 IC50
Protocol: as §1

Sequence of CDK6/Cyclin D3 (Q00534 whole entry): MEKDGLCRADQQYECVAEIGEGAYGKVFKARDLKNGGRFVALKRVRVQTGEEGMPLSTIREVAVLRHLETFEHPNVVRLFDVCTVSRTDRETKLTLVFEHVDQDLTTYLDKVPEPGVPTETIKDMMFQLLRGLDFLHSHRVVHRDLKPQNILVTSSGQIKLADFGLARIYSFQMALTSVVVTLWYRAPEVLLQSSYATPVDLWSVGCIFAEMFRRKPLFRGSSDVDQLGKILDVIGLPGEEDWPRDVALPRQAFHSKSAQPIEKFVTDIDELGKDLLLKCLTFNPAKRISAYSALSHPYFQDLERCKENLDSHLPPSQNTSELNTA
Sequence of CDK6/Cyclin D3 (P30281 whole entry partner): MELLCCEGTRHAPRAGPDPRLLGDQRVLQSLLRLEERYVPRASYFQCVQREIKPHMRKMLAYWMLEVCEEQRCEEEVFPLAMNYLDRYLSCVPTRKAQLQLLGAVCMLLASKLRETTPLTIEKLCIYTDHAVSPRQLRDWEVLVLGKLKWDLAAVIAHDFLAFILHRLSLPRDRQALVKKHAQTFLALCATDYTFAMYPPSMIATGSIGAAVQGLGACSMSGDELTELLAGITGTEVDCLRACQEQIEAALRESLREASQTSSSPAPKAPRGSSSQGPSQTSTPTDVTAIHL
Sequence of CDK4/Cyclin D1 (P11802 whole entry): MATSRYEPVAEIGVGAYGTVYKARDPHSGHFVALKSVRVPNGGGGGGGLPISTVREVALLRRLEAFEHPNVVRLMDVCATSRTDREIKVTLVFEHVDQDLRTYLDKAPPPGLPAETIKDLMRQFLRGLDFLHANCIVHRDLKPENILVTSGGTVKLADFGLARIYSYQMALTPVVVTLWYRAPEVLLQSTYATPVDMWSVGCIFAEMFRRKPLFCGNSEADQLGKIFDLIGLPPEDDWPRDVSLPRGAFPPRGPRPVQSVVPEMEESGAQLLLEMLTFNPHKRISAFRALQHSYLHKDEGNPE
Sequence of CDK4/Cyclin D1 (P24385 whole entry partner): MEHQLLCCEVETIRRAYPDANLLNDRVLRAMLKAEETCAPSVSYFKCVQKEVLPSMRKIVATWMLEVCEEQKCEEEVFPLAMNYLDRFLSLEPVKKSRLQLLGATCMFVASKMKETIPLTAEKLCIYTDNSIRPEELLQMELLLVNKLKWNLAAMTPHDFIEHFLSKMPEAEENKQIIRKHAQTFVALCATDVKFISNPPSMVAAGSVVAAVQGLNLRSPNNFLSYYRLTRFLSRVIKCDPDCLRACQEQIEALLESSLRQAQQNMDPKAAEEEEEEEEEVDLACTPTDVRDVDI

| Compound | IC50 (CDK6/Cyclin D3) | IC50 (CDK4/Cyclin D1) |
| --- | --- | --- |
| CC(C)c1c(CNC[C@H]2CCOC2)cnc2ccc(-c3nc(N[C@@H]4CCOC[C@H]4O)ncc3F)cc12 [Example 27, (3S,4R)-4-((5-fluoro-4-(4-isopropyl-3-(((((R)-tetrahydrofuran-3-yl)methyl)amino)methyl)quinolin-6-yl)pyrimidin-2-yl)amino)tetrahydro-2H-pyran-3-ol] | 828 nM | 23 nM |
| CC(C)c1c(CNC2CCCCC2)cnc2ccc(-c3nc(N[C@@H]4CCOC[C@H]4O)ncc3F)cc12 [Example 28] | 703 nM | 19 nM |
| CC(C)c1c(CNC2CCOCC2)cnc2ccc(-c3nc(N[C@@H]4CCOC[C@H]4O)ncc3F)cc12 [Example 29, (3S,4R)-4-((5-fluoro-4-(4-isopropyl-3-(((tetrahydro-2H-pyran-4-yl)amino)methyl)quinolin-6-yl)pyrimidin-2-yl)amino)tetrahydro-2H-pyran-3-ol] | 860 nM | 20 nM |
| CC(C)c1c(CN[C@@H]2CCCOC2)cnc2ccc(-c3nc(N[C@@H]4CCOC[C@H]4O)ncc3F)cc12 [Example 30, (3S,4R)-4-((5-fluoro-4-(4-isopropyl-3-((((R)-tetrahydro-2H-pyran-3-yl)amino)methyl)quinolin-6-yl)pyrimidin-2-yl)amino)tetrahydro-2H-pyran-3-ol] | 550 nM | 11 nM |
| COCc1cnc2ccc(-c3nc(N[C@@H]4CCOC[C@H]4O)ncc3F)cc2c1C(C)C [Example 31, (3S,4R)-4-((5-fluoro-4-(4-isopropyl-3-(methoxymethyl)quinolin-6-yl)pyrimidin-2-yl)amino)tetrahydro-2H-pyran-3-ol] | 275 nM | 25 nM |
| CC(C)c1c(CN[C@H]2CCOC2)cnc2ccc(-c3nc(N[C@@H]4CCOC[C@H]4O)ncc3F)cc12 [Example 32, (3S,4R)-4-((5-fluoro-4-(4-isopropyl-3-((((S)-tetrahydrofuran-3-yl)amino)methyl)quinolin-6-yl)pyrimidin-2-yl)amino)tetrahydro-2H-pyran-3-ol] | 484 nM | 11 nM |
| CC(C)c1c(CNC[C@@H]2CCOC2)cnc2ccc(-c3nc(N[C@@H]4CCOC[C@H]4O)ncc3F)cc12 [Example 33, (3S,4R)-4-((5-fluoro-4-(4-isopropyl-3-(((((S)-tetrahydrofuran-3-yl)methyl)amino)methyl)quinolin-6-yl)pyrimidin-2-yl)amino)tetrahydro-2H-pyran-3-ol] | 792 nM | 22 nM |
| CC(C)c1c(CNC[C@@H]2CCCO2)cnc2ccc(-c3nc(N[C@@H]4CCOC[C@H]4O)ncc3F)cc12 [Example 34, (3S,4R)-4-((5-fluoro-4-(4-isopropyl-3-(((((S)-tetrahydrofuran-2-yl)methyl)amino)methyl)quinolin-6-yl)pyrimidin-2-yl)amino)tetrahydro-2H-pyran-3-ol] | 783 nM | 27 nM |
| CC(C)c1c(CN[C@@H]2CCOC2)cnc2ccc(-c3nc(N[C@@H]4CCOC[C@H]4O)ncc3F)cc12 [Example 35, (3S,4R)-4-((5-fluoro-4-(4-isopropyl-3-((((R)-tetrahydrofuran-3-yl)amino)methyl)quinolin-6-yl)pyrimidin-2-yl)amino)tetrahydro-2H-pyran-3-ol] | 592 nM | 16 nM |
| CC(C)c1c(CN2CCOCC23CC3)cnc2ccc(-c3nc(N[C@@H]4CCOC[C@H]4O)ncc3F)cc12 [Example 36, (3S,4R)-4-((4-(3-((7-oxa-4-azaspiro[2.5]octan-4-yl)methyl)-4-isopropylquinolin-6-yl)-5-fluoropyrimidin-2-yl)amino)tetrahydro-2H-pyran-3-ol] | 224 nM | 14 nM |
| CC(C)c1c(CN[C@H]2CCCOC2)cnc2ccc(-c3nc(N[C@@H]4CCOC[C@H]4O)ncc3F)cc12 [Example 37, (3S,4R)-4-((5-fluoro-4-(4-isopropyl-3-((((S)-tetrahydro-2H-pyran-3-yl)amino)methyl)quinolin-6-yl)pyrimidin-2-yl)amino)tetrahydro-2H-pyran-3-ol] | 945 nM | 27 nM |
| CC(C)c1c(CN)cnc2ccc(-c3nc(N[C@@H]4CCOC[C@H]4O)ncc3F)cc12 [Example 38, (3S,4R)-4-((4-(3-(aminomethyl)-4-isopropylquinolin-6-yl)-5-fluoropyrimidin-2-yl)amino)tetrahydro-2H-pyran-3-ol] | 176 nM | 4.4 nM |
| CC(C)c1c(CN[C@H]2CCOC2)cnc2ccc(-c3nc(N[C@@H]4CCOC[C@H]4O)ncc3F)cc12 [Example 39, (3S,4R)-4-((5-fluoro-4-(4-isopropyl-3-((((S)-tetrahydrofuran-3-yl)amino)methyl)quinolin-6-yl)pyrimidin-2-yl)amino)tetrahydro-2H-pyran-3-ol] | 750 nM | 25 nM |
| CC(C)c1c(CN[C@@H]2CCOC2)cnc2ccc(-c3nc(N[C@@H]4CCOC[C@H]4O)ncc3F)cc12 [Example 40, (3S,4R)-4-((5-fluoro-4-(4-isopropyl-3-((((R)-tetrahydrofuran-3-yl)amino)methyl)quinolin-6-yl)pyrimidin-2-yl)amino)tetrahydro-2H-pyran-3-ol] | 759 nM | 33 nM |
| CC(C)c1c([C@H](C)O)cnc2ccc(-c3nc(N[C@@H]4CCOC[C@H]4O)ncc3F)cc12 [Example 41, (3S,4R)-4-((5-fluoro-4-(3-((S)-1-hydroxyethyl)-4-isopropylquinolin-6-yl)pyrimidin-2-yl)amino)tetrahydro-2H-pyran-3-ol] | 170 nM | 10 nM |
| CC(C)c1c([C@@H](C)O)cnc2ccc(-c3nc(N[C@@H]4CCOC[C@H]4O)ncc3F)cc12 [Example 42, (3S,4R)-4-((5-fluoro-4-(3-((R)-1-hydroxyethyl)-4-isopropylquinolin-6-yl)pyrimidin-2-yl)amino)tetrahydro-2H-pyran-3-ol] | 480 nM | 32 nM |
| CC(C)c1c(CNc2cnn(C)c2)cnc2ccc(-c3nc(N[C@@H]4CCOC[C@H]4O)ncc3F)cc12 [Example 43, (3S,4R)-4-((5-fluoro-4-(4-isopropyl-3-(((1-methyl-1H-pyrazol-4-yl)amino)methyl)quinolin-6-yl)pyrimidin-2-yl)amino)tetrahydro-2H-pyran-3-ol] | 533 nM | 41 nM |
| CC(C)c1c(CN2CCCOCC2)cnc2ccc(-c3nc(N[C@@H]4CCOC[C@H]4O)ncc3F)cc12 [Example 44, (3S,4R)-4-((4-(3-((1,4-oxazepan-4-yl)methyl)-4-isopropylquinolin-6-yl)-5-fluoropyrimidin-2-yl)amino)tetrahydro-2H-pyran-3-ol] | 475 nM | 25 nM |
| CC(C)c1c(CNc2ncccn2)cnc2ccc(-c3nc(N[C@@H]4CCOC[C@H]4O)ncc3F)cc12 [Example 45, (3S,4R)-4-((5-fluoro-4-(4-isopropyl-3-((pyrimidin-2-ylamino)methyl)quinolin-6-yl)pyrimidin-2-yl)amino)tetrahydro-2H-pyran-3-ol] | 286 nM | 22 nM |
| COc1ccc(NCc2cnc3ccc(-c4nc(N[C@@H]5CCOC[C@H]5O)ncc4F)cc3c2C(C)C)cc1 [Example 46, (3S,4R)-4-((5-fluoro-4-(4-isopropyl-3-(((4-methoxyphenyl)amino)methyl)quinolin-6-yl)pyrimidin-2-yl)amino)tetrahydro-2H-pyran-3-ol] | 1040 nM | 65 nM |
| CC(C)c1c([C@H](C)N2CC[C@@H](F)C2)cnc2ccc(-c3nc(N[C@@H]4CCOC[C@H]4O)ncc3F)cc12 [Example 47, (3S,4R)-4-((5-fluoro-4-(3-((S)-1-((R)-3-fluoropyrrolidin-1-yl)ethyl)-4-isopropylquinolin-6-yl)pyrimidin-2-yl)amino)tetrahydro-2H-pyran-3-ol] | 250 nM | 25 nM |
| CC(C)c1c([C@@H](C)N2CC[C@@H](F)C2)cnc2ccc(-c3nc(N[C@@H]4CCOC[C@H]4O)ncc3F)cc12 [Example 48, (3S,4R)-4-((5-fluoro-4-(3-((R)-1-((R)-3-fluoropyrrolidin-1-yl)ethyl)-4-isopropylquinolin-6-yl)pyrimidin-2-yl)amino)tetrahydro-2H-pyran-3-ol] | 756 nM | 21 nM |
| CC(C)c1c(CN2C[C@H]3C[C@@H]2CO3)cnc2ccc(-c3nc(N[C@@H]4CCOC[C@H]4O)ncc3F)cc12 [Example 49, (3S,4R)-4-((4-(3-(((1R,4R)-2-oxa-5-azabicyclo[2.2.1]heptan-5-yl)methyl)-4-isopropylquinolin-6-yl)-5-fluoropyrimidin-2-yl)amino)tetrahydro-2H-pyran-3-ol] | 392 nM | 14 nM |
| CC(C)c1c(C2(O)CCCC2)cnc2ccc(-c3nc(N[C@@H]4CCOC[C@H]4O)ncc3F)cc12 [Example 50, (3S,4R)-4-((5-fluoro-4-(3-(1-hydroxycyclopentyl)-4-isopropylquinolin-6-yl)pyrimidin-2-yl)amino)tetrahydro-2H-pyran-3-ol] | 185 nM | 4.4 nM |

From patent publication US20240300937A1, “Substituted 6-(Pyrimidin-4-yl)Quinoline Compounds as Cyclin Dependent Kinase Inhibitors” (BeiGene, Ltd., priority 2022, published 2024)
